One experiment has as its target T1, human CYP11B1 (Homo sapiens, UniProt P15538).
T1 construct: expressed in transfected cells
T1 sequence (P15538 25-503): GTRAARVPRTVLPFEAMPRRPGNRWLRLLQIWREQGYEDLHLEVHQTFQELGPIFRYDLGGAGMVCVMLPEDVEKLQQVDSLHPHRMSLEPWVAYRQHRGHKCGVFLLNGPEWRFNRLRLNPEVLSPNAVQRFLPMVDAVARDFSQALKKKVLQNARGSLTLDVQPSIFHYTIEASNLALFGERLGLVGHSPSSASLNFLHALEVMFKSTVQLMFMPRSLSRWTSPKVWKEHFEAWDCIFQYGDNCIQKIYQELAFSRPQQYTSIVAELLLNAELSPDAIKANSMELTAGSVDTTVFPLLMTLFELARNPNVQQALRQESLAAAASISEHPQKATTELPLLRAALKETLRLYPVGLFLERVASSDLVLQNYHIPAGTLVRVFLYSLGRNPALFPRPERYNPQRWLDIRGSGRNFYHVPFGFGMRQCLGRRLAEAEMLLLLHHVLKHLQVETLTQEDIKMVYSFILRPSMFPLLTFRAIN
The experiment is described as follows: IC50 vs CYP11B1 by cortisol synthesis in V79 cells. Particulars: V79 cells expressing human CYP11B1, 1500 nM RSS, cortisol HTRF; test concentrations 0.5-10000 nM. It is filed as cell-based. How it is done: (§1) Determination of IC50 vs CYP11B1/CYP11B2 by Measurement of Cortisol/Aldosterone Synthesis
(§2) This assay was performed in a standard 384-well plate design using cultured V79 cells stably expressing human CYP11B1 or human CYP11B2. Test compounds at 10 concentrations (for example, 10000, 3333.3, 1111.1, 370.4, 123.5, 41.2, 13.7, 4.6, 1.5 and 0.5 nM) were added in 384-well plate after the cell-seeding procedure. The incubation substrate contains 1500 nM RSS for CYP11B1 assay/750 nM DOC for CYP11B2 assay. The
(§3) Cortisol/Aldosterone production of cell culture supernatant was determined by Cortisol/Aldosterone HTRF kit after for about 15 hours incubation at RT (protect from light). IC50 values were calculated from the percent inhibition observed for each test compound at 10 concentrations.
(§4) The assay plate was read using Envision (Perkin Elmer, Waltham, Mass.) at 665 nm and 590 nm (using Filter Barcode of 217#, 205#; Mirror Barcode of 446#).
(§5) Data are analyzed using Assay Data Analyzer. All ratio data (665 nm/590 nm) are back calculated according to the standard curve, resulting in Cortisol/Aldosterone concentrations. IC50 values are reported as the Inflection Point (IP) of a four parameter fit of the titration data.
(§6) The following equation was used to calculate the % inhibition:
(§7) % Activity=100×{1−(Sample_back calculated Cortisol/Aldosterone concentration−LC_back calculated Cortisol/Aldosterone concentration)/(HC_back calculated Cortisol/Aldosterone concentration−LC_back calculated Cortisol/Aldosterone concentration)}
A general note: In TR-FRET formats the signal depends on donor and acceptor labels being close together.

A further experiment addresses T2, CYP2D6 (Homo sapiens, UniProt P10635).
T2 construct: 0.1 mg/mL protein human liver microsomes (BD Gentest); tissue BD Gentest; host or cells: human liver microsomes
The experiment is described as follows: Cocktail CYP assay, dextromethorphan O-demethylation. Particulars: human liver microsomes, 5 μM dextromethorphan; test concentrations up to 10 μM. It is filed as in vitro ADME. How it is done: (§8) Determination of IC50 in a Cocktail Assay for CYPs 1A2, 2C9, 2C19, 2D6 and 3A4
(§9) This assay was performed in a standard 96-well plate design. IC50 values were calculated from the percent inhibition observed for each test compound at 6 concentrations (for example, 0.0032, 0.016, 0.08, 0.4, 2 and 10 μM). The incubation substrate mix contains 10 μM phenacetin (1A2), 5 μM diclofenac (2C9), 30 μM mephenyloin (2C19), 5 μM dextromethorphan (2D6) and 2 μM midazolam (3A4), 0.1 mg/mL protein human liver microsomes (BD Gentest), 1 mM NAPDH, 3.3 mM MgCl2 and 100 mM potassium phosphate buffer (pH 7.4). The production of the metabolite of each probe substrate was determined after incubation for 10 min at 37° C. Quantitation of the metabolite peak area ratio against an internal standard (tolbutamide) was determined by LC/MS/MS analysis following acetonitrile treatment of the incubations.
(§10) Samples were analyzed in the MRM mode with a SCIEX API-4000 mass spectrometer (Applied Biosystems, Foster City, Calif.), with a Shimadzu LC-20 AD pump (Shimadzu corporation, Kyoto, JP) and a CTC PAL autosampler (Agilent Technologies, Switzerland). A Phenomenex, Luna, […], 100 A, 2.00×30 mm HPLC column was used for the separation. The mobile phases were: (A) 0.1% formic acid in water and (B) 0.1% formic acid in acetonitrile. The binary gradient was as follows.
(§11) The peak area ratio of the analyte to the internal standard was used to quantify the metabolite. The values of peak area ratios in the presence of test compound were compared to those of maximum or minimum controls and were expressed as % inhibition by interpolating between the maximum and minimum peak area ratios. Incubations with no inhibitor were defined as the maxima.
as §6
(§12) [1−[(X−Low control)/(High control−Low control)]]*100
(§13) For the IC50 calculation, SigmaPlot was used to plot the mean % inhibition versus the test compound concentrations and for non-linear regression analysis of the data. Depending on the range of data points defining the inhibition curve, the data may have been fit to the 4-parameter logistic equation.
(In general: Liver microsomes are a subcellular fraction often used to study metabolism.)

The next experiment has as its target T3, human CYP11B2 (Homo sapiens, UniProt P19099).
T3 construct: expressed in transfected cells
T3 sequence (P19099 25-503): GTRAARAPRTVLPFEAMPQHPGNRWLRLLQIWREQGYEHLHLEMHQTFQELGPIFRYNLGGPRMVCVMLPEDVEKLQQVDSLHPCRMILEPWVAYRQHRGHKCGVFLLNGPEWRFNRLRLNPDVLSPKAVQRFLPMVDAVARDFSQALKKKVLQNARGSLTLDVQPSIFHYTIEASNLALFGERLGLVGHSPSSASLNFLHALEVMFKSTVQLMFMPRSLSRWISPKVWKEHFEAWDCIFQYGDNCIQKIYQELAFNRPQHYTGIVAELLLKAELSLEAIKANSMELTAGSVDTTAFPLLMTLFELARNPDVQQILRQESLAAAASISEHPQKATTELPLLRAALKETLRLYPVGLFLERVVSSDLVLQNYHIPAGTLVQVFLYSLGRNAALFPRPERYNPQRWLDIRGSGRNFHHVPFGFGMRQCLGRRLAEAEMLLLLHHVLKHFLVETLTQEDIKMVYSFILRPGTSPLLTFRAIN
Nature of the experiment: IC50 vs CYP11B2 by aldosterone synthesis in V79 cells. It is filed as cell-based. Particulars: V79 cells expressing human CYP11B2, 750 nM DOC, aldosterone HTRF; test concentrations 0.5-10000 nM. How it is done: as §1, §2, §3, §4, §5, §6, §7

For the next experiment, the target named is T4, CYP1A2 (Homo sapiens, UniProt P05177).
T4 construct: 0.1 mg/mL protein human liver microsomes (BD Gentest); tissue BD Gentest; host or cells: human liver microsomes
T4 sequence (P05177 1-516): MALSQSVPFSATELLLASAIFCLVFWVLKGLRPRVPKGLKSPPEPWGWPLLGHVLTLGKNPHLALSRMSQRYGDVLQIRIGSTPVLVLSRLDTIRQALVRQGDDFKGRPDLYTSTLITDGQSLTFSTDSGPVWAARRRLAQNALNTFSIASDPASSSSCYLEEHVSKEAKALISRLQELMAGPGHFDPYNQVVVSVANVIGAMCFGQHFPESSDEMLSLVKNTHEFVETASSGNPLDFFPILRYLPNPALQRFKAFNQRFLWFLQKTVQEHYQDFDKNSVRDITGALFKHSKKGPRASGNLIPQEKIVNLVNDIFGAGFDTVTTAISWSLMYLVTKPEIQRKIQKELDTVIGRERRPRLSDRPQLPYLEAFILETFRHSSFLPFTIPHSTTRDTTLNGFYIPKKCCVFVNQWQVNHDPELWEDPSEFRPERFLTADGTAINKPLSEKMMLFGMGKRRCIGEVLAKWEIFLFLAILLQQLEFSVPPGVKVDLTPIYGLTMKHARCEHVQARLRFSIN
The experiment is described as follows: Cocktail CYP assay, phenacetin O-deethylation. It is filed as in vitro ADME. The conditions noted are these: human liver microsomes, 10 μM phenacetin; test concentrations up to 10 μM. On the procedure: as §8, §9, §10, §11, §6, §12, §13

Another experiment deals with T5, CYP2C9 (Homo sapiens, UniProt P11712).
T5 construct: 0.1 mg/mL protein human liver microsomes (BD Gentest); tissue BD Gentest; host or cells: human liver microsomes
Nature of the experiment: Cocktail CYP assay, diclofenac 4'-hydroxylation. It is filed as in vitro ADME. Particulars: human liver microsomes, 5 μM diclofenac; test concentrations up to 10 μM. How it is done:
as §8, §9, §10, §11, §6, §12, §13

A further experiment deals with T6, CYP2C19 (Homo sapiens, UniProt P33261).
T6 construct: 0.1 mg/mL protein human liver microsomes (BD Gentest); tissue BD Gentest; host or cells: human liver microsomes
Nature of the experiment: Cocktail CYP assay, mephenytoin 4'-hydroxylation. It is filed as in vitro ADME. The conditions noted are these: human liver microsomes, 30 μM mephenytoin; test concentrations up to 10 μM. How it is done: as §8, §9, §10, §11, §6, §12, §13

T6 sequence (P33261 whole entry): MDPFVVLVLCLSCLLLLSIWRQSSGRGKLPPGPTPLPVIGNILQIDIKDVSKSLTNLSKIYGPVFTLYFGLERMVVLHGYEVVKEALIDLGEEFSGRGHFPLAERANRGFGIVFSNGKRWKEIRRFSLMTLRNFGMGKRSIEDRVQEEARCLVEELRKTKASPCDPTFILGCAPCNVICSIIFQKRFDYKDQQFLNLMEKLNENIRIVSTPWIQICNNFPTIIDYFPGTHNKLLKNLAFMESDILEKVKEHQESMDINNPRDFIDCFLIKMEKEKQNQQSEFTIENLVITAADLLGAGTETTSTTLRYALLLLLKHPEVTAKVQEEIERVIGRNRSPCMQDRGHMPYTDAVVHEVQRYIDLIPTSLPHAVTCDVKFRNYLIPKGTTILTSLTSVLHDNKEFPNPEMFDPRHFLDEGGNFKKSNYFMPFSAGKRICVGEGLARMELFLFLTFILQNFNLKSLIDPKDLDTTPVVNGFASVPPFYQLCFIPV
T5 sequence (P11712 whole entry): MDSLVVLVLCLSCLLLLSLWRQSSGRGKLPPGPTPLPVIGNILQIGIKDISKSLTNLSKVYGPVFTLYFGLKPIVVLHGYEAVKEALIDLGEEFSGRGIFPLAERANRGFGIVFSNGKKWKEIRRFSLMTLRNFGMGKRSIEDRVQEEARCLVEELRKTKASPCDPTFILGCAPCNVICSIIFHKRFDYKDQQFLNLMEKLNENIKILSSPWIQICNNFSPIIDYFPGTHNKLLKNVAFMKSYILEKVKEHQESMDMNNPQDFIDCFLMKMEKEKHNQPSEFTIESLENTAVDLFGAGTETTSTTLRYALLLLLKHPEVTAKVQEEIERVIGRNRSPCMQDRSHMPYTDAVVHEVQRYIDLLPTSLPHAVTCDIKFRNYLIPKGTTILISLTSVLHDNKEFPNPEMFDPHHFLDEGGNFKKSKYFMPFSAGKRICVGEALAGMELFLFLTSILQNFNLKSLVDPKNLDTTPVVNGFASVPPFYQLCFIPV
T2 sequence (P10635 whole entry): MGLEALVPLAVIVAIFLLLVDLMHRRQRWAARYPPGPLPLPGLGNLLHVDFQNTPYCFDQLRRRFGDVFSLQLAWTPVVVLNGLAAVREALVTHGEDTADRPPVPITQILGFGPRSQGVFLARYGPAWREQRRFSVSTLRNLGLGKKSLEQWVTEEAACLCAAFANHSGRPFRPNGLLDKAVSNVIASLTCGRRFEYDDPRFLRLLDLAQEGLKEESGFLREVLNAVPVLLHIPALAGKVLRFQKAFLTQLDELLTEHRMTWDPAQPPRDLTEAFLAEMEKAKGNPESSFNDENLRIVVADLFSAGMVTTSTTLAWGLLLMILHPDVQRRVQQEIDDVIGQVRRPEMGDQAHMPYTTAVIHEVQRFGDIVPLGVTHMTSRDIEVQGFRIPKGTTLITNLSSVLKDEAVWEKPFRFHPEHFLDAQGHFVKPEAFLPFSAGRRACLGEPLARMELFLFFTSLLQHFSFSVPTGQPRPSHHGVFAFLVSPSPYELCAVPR

In the case of `C[C@H](c1ccc(F)cc1)n1cncc1CN1CCN(S(=O)(=O)c2cnc(N3CC[C@@H](N)[C@H](F)C3)s2)CC1` [Compound 12], the IC50 on human CYP11B1 is 1460 nM; against CYP2D6 it was 2850 nM; against human CYP11B2, 1690 nM; on CYP1A2 it was over 10000 nM; at CYP2C9 it was 1750 nM; at CYP2C19, over 10000 nM.

The IC50 is the concentration that gives 50% inhibition.

(Values after patent publication US20140005103A1, “SULFONAMIDE DERIVATIVES AND METHODS OF USE THEREOF FOR IMPROVING THE PHARMACOKINETICS OF A DRUG” (Merck, Sharp & Dohme Corp., priority 2012, published 2014).)
